Here are results for 13 compounds from ChEMBL document CHEMBL3991601, “The target landscape of clinical kinase drugs” (Science, 2017).

What is called Kd is the constant that tells how readily two partners part at equilibrium.

Counter-ions that a name gives are not always drawn. Activity calls are given as the source filed them.

Assay [1] has as its target Fibroblast growth factor receptor 1 (Homo sapiens, UniProt P11362).
The target in assay [2] is Tyrosine-protein kinase FRK (Homo sapiens, UniProt P42685).
In assay [3] the target is T1, Mitogen-activated protein kinase kinase kinase 6 (Homo sapiens, UniProt O95382).
T1 sequence (O95382 whole entry): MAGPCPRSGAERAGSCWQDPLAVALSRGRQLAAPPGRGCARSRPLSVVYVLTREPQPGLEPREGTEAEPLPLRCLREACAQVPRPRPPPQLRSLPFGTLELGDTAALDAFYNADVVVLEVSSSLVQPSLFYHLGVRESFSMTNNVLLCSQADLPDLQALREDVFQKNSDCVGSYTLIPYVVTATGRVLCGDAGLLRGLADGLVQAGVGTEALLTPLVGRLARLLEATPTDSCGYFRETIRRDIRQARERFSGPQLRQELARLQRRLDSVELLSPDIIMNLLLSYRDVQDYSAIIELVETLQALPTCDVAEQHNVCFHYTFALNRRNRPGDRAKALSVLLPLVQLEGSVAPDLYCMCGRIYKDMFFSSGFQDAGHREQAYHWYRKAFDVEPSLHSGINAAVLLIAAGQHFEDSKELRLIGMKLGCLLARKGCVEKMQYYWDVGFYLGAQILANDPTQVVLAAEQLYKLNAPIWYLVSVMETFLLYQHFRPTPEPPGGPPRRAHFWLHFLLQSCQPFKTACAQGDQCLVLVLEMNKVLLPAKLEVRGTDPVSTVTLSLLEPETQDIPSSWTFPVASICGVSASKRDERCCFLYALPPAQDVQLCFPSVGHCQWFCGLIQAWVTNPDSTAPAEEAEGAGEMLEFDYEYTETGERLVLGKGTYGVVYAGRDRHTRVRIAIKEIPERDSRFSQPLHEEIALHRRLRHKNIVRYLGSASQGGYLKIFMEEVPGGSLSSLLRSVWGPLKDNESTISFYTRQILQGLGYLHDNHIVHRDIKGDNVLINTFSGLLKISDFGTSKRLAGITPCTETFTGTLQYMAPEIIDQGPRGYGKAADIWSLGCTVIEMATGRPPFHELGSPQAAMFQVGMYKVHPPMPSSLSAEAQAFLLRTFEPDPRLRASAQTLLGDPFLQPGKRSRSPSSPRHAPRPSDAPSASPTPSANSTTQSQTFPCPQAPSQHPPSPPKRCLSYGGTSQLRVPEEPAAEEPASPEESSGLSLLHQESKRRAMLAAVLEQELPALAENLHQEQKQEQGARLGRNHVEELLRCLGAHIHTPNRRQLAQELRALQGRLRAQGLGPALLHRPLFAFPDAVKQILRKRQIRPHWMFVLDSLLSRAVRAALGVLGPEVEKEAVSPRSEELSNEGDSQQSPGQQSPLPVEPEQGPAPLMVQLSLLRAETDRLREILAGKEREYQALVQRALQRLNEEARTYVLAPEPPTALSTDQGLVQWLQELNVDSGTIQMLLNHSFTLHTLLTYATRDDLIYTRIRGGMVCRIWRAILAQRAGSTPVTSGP

Assay [4] deals with Mitogen-activated protein kinase 11 (Homo sapiens, UniProt Q15759).
Assay [5] concerns the target T2, Pyridoxal kinase (Homo sapiens, UniProt O00764).
T2 sequence (O00764 whole entry): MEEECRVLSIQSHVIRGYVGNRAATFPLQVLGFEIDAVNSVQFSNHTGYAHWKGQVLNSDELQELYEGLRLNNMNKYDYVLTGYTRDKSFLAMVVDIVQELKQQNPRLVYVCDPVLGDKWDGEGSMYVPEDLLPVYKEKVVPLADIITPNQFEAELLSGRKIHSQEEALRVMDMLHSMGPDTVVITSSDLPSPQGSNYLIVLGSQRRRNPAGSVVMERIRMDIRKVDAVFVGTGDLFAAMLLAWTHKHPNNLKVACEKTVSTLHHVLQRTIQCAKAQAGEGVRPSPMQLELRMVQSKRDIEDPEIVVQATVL

For assay [6], the target named is T3, Phosphorylase b kinase gamma catalytic chain, liver/testis isoform (Homo sapiens, UniProt P15735).
T3 sequence (P15735 whole entry): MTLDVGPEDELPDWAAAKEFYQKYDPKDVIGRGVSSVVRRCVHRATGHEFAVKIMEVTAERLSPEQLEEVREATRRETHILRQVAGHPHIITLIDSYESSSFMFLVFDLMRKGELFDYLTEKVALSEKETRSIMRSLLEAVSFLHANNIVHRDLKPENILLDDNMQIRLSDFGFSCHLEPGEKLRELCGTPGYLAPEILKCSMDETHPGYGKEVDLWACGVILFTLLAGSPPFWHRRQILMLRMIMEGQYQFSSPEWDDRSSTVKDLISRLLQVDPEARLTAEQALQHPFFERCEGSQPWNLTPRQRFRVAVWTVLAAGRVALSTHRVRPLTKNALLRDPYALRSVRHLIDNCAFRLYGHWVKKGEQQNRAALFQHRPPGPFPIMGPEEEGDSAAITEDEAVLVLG

Assay [7] concerns the target T4, Glycogen phosphorylase, brain form (Homo sapiens, UniProt P11216).
T4 sequence (P11216 whole entry): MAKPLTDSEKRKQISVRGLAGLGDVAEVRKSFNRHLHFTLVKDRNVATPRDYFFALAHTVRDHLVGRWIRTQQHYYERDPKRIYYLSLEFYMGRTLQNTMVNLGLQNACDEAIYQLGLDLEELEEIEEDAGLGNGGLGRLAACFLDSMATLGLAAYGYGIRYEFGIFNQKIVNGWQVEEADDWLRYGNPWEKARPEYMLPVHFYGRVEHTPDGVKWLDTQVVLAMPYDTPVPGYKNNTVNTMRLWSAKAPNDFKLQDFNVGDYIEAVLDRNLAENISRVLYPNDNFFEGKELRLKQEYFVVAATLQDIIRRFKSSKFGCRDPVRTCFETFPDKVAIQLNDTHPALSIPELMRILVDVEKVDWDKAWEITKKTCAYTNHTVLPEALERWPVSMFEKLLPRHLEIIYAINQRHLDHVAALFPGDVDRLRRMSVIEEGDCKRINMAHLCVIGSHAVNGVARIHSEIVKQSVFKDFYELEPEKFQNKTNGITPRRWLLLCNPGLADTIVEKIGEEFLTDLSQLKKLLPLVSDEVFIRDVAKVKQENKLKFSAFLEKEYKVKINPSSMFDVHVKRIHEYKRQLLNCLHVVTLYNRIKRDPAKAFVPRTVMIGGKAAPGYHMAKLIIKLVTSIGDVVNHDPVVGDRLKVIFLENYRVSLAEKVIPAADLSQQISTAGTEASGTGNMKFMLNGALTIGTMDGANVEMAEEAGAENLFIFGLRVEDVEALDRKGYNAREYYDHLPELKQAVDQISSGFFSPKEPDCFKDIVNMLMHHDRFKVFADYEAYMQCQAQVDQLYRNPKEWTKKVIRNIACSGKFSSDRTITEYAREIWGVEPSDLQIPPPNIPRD
Note: in the data inactive means no Kd found up to 30 µM.

Tyrosine-protein kinase FRK, sequence (P42685 whole entry): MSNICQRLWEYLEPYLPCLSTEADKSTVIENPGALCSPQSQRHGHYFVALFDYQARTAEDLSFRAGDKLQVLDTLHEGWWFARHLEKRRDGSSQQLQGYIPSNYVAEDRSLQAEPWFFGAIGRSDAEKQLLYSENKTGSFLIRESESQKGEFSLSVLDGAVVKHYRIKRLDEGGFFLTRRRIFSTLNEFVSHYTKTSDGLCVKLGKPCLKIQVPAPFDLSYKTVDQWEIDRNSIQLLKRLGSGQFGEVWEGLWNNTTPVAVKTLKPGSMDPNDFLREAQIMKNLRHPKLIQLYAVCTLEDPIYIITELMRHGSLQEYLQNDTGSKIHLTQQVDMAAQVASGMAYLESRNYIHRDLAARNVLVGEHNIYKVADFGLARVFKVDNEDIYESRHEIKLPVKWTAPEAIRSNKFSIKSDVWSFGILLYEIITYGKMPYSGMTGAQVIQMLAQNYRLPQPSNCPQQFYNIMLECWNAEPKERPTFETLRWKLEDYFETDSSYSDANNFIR
Fibroblast growth factor receptor 1, sequence (P11362 whole entry): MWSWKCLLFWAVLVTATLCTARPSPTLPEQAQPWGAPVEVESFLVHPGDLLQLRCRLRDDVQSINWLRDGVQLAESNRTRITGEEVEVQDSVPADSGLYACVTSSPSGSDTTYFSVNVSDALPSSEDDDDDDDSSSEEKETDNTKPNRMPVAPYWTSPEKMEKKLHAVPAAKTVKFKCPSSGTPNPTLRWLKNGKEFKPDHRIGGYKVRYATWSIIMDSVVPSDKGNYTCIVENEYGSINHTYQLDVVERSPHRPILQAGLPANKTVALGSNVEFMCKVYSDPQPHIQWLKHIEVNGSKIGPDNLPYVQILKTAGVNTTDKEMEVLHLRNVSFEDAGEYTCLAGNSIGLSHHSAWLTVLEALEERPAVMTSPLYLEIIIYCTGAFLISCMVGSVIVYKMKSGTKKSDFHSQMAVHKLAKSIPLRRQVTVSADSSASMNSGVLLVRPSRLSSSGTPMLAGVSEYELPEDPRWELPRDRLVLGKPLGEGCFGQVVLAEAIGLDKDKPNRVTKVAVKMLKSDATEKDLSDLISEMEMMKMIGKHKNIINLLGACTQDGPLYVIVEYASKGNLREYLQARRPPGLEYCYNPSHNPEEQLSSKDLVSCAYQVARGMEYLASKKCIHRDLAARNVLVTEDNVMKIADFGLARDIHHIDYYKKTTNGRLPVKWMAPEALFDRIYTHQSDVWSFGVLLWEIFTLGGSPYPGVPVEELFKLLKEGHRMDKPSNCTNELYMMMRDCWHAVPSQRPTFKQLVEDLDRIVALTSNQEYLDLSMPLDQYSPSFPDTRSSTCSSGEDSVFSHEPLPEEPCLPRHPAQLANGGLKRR
Mitogen-activated protein kinase 11, sequence (Q15759 whole entry): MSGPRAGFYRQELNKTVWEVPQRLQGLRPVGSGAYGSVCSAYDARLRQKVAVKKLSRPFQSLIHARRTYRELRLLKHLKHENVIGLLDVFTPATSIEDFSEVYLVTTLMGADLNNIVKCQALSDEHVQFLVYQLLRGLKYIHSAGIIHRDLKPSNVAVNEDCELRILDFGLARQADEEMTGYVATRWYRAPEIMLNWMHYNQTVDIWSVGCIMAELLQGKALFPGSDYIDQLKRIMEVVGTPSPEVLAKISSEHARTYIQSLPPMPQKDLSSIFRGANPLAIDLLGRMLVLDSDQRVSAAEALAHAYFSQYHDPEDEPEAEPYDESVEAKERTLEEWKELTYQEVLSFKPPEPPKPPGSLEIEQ

On to `Cc1cc(Nc2ncc(Cl)c(Nc3ccccc3S(=O)(=O)C(C)C)n2)c(OC(C)C)cc1C1CCNCC1` [CERITINIB], for which the Kd in assay [1], in assay [2], in assay [3], in assay [4], in assay [5] and in assay [6] was > 30 µM (inactive) each time. Also, in assay [7], the Kd was > 30 µM (inactive).
`COc1c(OCCCN2CCOCC2)ccc2c1N=C(NC(=O)c1cnc(N)nc1)N1CCN=C21` [COPANLISIB]: the Kd in assay [1], in assay [2], in assay [3], in assay [4], in assay [5] and in assay [6] was > 30 µM (inactive) throughout. For the same compound, the Kd in assay [7] was > 30 µM (inactive).
`COCC(=O)NC/C=C/c1ccc2ncnc(Nc3ccc(Oc4ccc(C)nc4)c(C)c3)c2c1` [CP-724714]: the Kd in assay [1], in assay [2], in assay [3], in assay [4], in assay [5] and in assay [6] was > 30 µM (inactive) each time. Further, the Kd in assay [7] is > 30 µM (inactive).
Regarding `C#Cc1cccc(Nc2ncnc3cc(OC)c(OCCCCCCC(=O)NO)cc23)c1` [CUDC-101], the Kd in assay [1], in assay [2], in assay [3], in assay [4], in assay [5] and in assay [6] was > 30 µM (inactive) in each case. Moreover, the Kd in assay [7] is > 30 µM (inactive).
For the compound `CCS(=O)(=O)N1CCN(c2ccc(Nc3ncc(C(N)=O)c(NC4CC4)n3)cc2)CC1` [Cerdulatinib Hydrochloride], the Kd in assay [1] was > 30 µM (inactive); in assay [2] it was > 30 µM (inactive); in assay [3], 0.473 µM (active); in assay [4] it was > 30 µM (inactive); in assay [5], > 30 µM (inactive); in assay [6] it was > 30 µM (inactive). The Kd in assay [7] is > 30 µM (inactive).
Regarding `CC(C)(C)c1nc(-c2cccc(NS(=O)(=O)c3c(F)cccc3F)c2F)c(-c2ccnc(N)n2)s1` [DABRAFENIB], the Kd in assay [1] is > 30 µM (inactive); in assay [2] it was 0.727 µM (active); in assay [3], > 30 µM (inactive); in assay [4] it was > 30 µM (inactive); in assay [5] it was > 30 µM (inactive); in assay [6], > 30 µM (inactive). Besides, the Kd in assay [7] was > 30 µM (inactive).
Take `O=C(Nc1nc2cccc(-c3ccc(CN4CCS(=O)(=O)CC4)cc3)n2n1)C1CC1` [FILGOTINIB]: the Kd in assay [1], in assay [2], in assay [3], in assay [4], in assay [5] and in assay [6] was > 30 µM (inactive) throughout. The Kd in assay [7] was > 30 µM (inactive).
As for `Cc1cccc(-c2nn3c(c2-c2ccnc4ccc(C(N)=O)cc24)CCC3)n1` [GALUNISERTIB], the Kd in assay [1], in assay [2], in assay [3], in assay [4], in assay [5] and in assay [6] was > 30 µM (inactive) each time. Also, the Kd in assay [7] was > 30 µM (inactive).
`COc1ccc(S(=O)(=O)N(C(C)=O)c2ccccc2/C=C/c2cc[n+]([O-])cc2)cc1` [HMN-214]: the Kd in assay [1], in assay [2], in assay [3], in assay [4], in assay [5] and in assay [6] was > 30 µM (inactive) each time. Besides, in assay [7], the Kd is > 30 µM (inactive).
As to `O=C(Nc1cc(C(F)(F)F)cc(C(F)(F)F)c1)c1cc(Cl)ccc1O` [IMD-0354], the Kd in assay [1], in assay [2], in assay [3], in assay [4], in assay [5] and in assay [6] was > 30 µM (inactive) in each case. In addition, the Kd in assay [7] is > 30 µM (inactive).
With `CNC(=O)c1cccc2cc(Oc3ccnc4cc(OCC5(N)CC5)c(OC)cc34)ccc12` [LUCITANIB], the Kd in assay [1] is > 30 µM (inactive); in assay [2], > 30 µM (inactive); in assay [3] it was > 30 µM (inactive); in assay [4] it was > 30 µM (inactive); in assay [5] it was 16.4 µM (active); in assay [6], > 30 µM (inactive). In assay [7], the Kd is > 30 µM (inactive).
Take `CNC(=O)c1nn(C)c2c1C(C)(C)Cc1cnc(Nc3ccc(N4CCN(C)CC4)cc3)nc1-2` [MILCICLIB]: the Kd in assay [1] was 1.42 µM (active); in assay [2] it was 3.02 µM (active); in assay [3], > 30 µM (inactive); in assay [4], > 30 µM (inactive); in assay [5] it was > 30 µM (inactive); in assay [6], 18.6 µM. Also, the Kd in assay [7] was > 30 µM (inactive).
`NC1(c2ccc(-c3nc4ccn5c(=O)[nH]nc5c4cc3-c3ccccc3)cc2)CCC1` [MK-2206]: the Kd in assay [1], in assay [2], in assay [3], in assay [4], in assay [5] and in assay [6] was > 30 µM (inactive) throughout. For the same compound, the Kd in assay [7] was > 30 µM (inactive).
